The structures appear in SMILES notation. “Also recorded” adds a separate entry of the source. Like-named read-outs stand apart in the source and are kept apart here.

Data set [1] deals with MDA-MB-231 breast cancer cells. Description: MTT colorimetric cell viability assay, MDA-MB-231 cells. It counts as cell-based. The protocol:
(§1) Other cell lines used in this study include, MDA-MB-231 (estrogen receptor negative, ER−ve), MCF-7 (ER+ve) were also purchased from ATCC and were cultured as previously described.^44, 45 LTLC and LTLT-Ca were kindly provided by Dr. Angela Brodie, University of Maryland, Baltimore, and details of their phenotypes and culturing conditions are as previously reported.^46, 47 MCF-7TAM and MCF-7HoxB-7 were provided by Dr. Sara Sukumar of Johns Hopkins University, Baltimore, and details of their phenotypes and culturing conditions are as previously reported.^48 Except for MCF-7 breast cancer cell all other breast cancer cells used in this study are insensitive to endocrine therapeutic agents and to most anti-cancer agents.
(§2) The MTT (3-[4,5-dimethylthiazol-2-yl]-2,5-diphenyltetrazolium bromide) assay was used to measure the cell viability. MDA-MB-231 cells (1.0×10^3 cells/ml) were seeded into 96 well plates. Cells were treated with the compound on day 2 at different concentrations. On the 5th day, the medium was removed and […] of a 0.5 mg/ml MTT solution was added to each well. The plates were incubated at 37° C. for 2 hours and 200 μL of DMSO was added. The yellow tetrazolium salt (MTT) is reduced to a purple formazan product by the mitochondrial dehydrogenase from living cells. The product is then detected by spectrophotometry at 560 nm.
as §2, with “viability. PC-3 cells or” for “viability.”, “compounds” for “compound”

Data set [2] has as its system PC-3 prostate cancer cells. Briefly: MTT cell growth inhibition assay, PC-3 cells. The data set is classed as cell-based, human. The method, then:
PC-3 (androgen receptor negative, AR−ve) cells were obtained from American Type Culture Collection (ATCC, Rockville, Md., USA). Cells were maintained in RPMI 1640 medium (Gibco, Invitrogen, Carlsbad, Calif., USA) supplemented with 10% fetal bovine serum (Atlanta Biologicals, Lawrenceville, Ga., USA) and 1% penicillin/streptomycin. Cells were grown as a monolayer in T75 tissue culture flasks in a humidified incubator (5% CO2, 95% air) at 37° C.
(§3) PC-3 cells were seeded in 24 well plates (Corning Costar) at a density of 2×10^4 cells per well per 1 mL of medium. Cells were allowed to adhere to the plate for 24 hours and then treated with different concentrations of ATRA, HDIs or mutual prodrugs dissolved in 10% DMSO, 90% ethanol. Cells were treated for five days with renewal of prodrug and media on day 3. On the fifth day, medium was renewed and 100 μL of MTT (3-(4,5-dimethylthiazol-2-yl)-2,5-diphenyl-2H-tetrazolium bromide from Sigma) solution (0.5 mg MTT/mL of media) was added to the medium such that the ratio of MTT:medium was 1:10. The cells were incubated with MTT for 2 hours. The medium was then aspirated and 500 μL of DMSO was added to solubilize the violet MTT-formazan product. The absorbance at 560 nm was measured by spectrophotometry (Victor 1420 multilabel counted, Wallac). For each concentration of agent or mutual prodrugs there were triplicate wells in each independent experiment. GI50 values were calculated by nonlinear regression analysis using GraphPad Prism software.
as §2, with “viability. PC-3 cells or” for “viability.”, “compounds” for “compound”
To assess the effect of mutual prodrugs on cell growth, PC-3 and MDA-MB-231 cells were treated with mutual prodrugs for […], respectively. […] In this cell line, the order of potency was VNLG/66>VNLG/114>VNLG/122>VNLG/124>VNLG/60. The efficacies of mutual prodrugs were compared to the efficacies of ATRA or HDIs alone in PC-3 prostate cancer cells. […] The reason(s) for these differential potencies of the different mutual prodrugs in PC-3 cells are unknown at this time, but may be idiosyncratic, possibly due to extents and efficiencies of cell membrane penetration and/or intracellular cleavage of mutual prodrugs.

The subject of data set [3] is MCF-7TAMR. Briefly: MTT cell growth inhibition, MCF-7TAMR cells. It counts as cell-based. The method, then:
as §1, §3
(§4) Given the potency of most of the mutual prodrugs of the present invention, in MDA-MB-231 and PC-3 cell lines, their effects on the growth of some known drug-resistant breast cancer cell lines, including MCF-7TAMR, MCF-7Hox-B7, LTLC and LTLT-Ca was tested compared to parental MCF-7 cells.

Data set [4] has as its system MCF-7HOX-B7. Description: MTT cell growth inhibition, MCF-7HOX-B7 cells. It counts as cell-based. The protocol: as §1, §3, §4
Data set [5] has as its system MCF-7. Briefly: MTT cell growth inhibition, MCF-7 cells. The data set is classed as cell-based. The method, then: as §1, §3, §4
The mark [6] stands for this setting: Homo sapiens, MDA-MB-231, dose-response curves, at least three independent experiments, SEM < 10%, read-out: GI50 Values, MDA-MB-231 breast cancer cells.
Where [7] appears, read: Homo sapiens, PC-3, dose-response curves, at least three independent experiments, SEM < 10%, read-out: GI50 Values, PC-3 prostate cancer cells.
The mark [8] stands for this setting: Homo sapiens, MDA-MB-231, read-out: GI50, MDA-MB-231 cells.

The GI50 is the concentration that inhibits growth by half. As for `Nc1ccccc1NC(=O)c1ccc(CNC(=O)OCc2cccnc2)cc1` [MS-275, N-(2-aminophenyl)4-[N-(pyridine-3-yl-methoxy-carbonyl)aminomethyl]benzamide, reference compound], the GI50 came to 0.009 µM in data set [1] (setting [6]); 0.19 µM in data set [2] (Homo sapiens, PC-3, read-out: GI50, PC-3 cells); 0.19 µM in data set [2] (setting [7]).
Regarding `CCCC(=O)OCOC(=O)C=C(C)C=CC=C(C)C=CC1=C(C)CCCC1(C)C` [compound 3, retinoyloxymethyl butyrate, reference compound], the GI50 in data set [1] (MDA-MB-231, head-to-head with VNLG/124, FIG. 7, read-out: GI50 for inhibition of growth of MDA-MB-231 cells, head-to-head (FIG. 7)) is 1.18 µM.
For the compound `CC1=C(/C=C/C(C)=C/C=C/C(C)=C/C(=O)O)C(C)(C)CCC1` [ATRA, all-trans retinoic acid, reference compound], the GI50 amounted to 10.8 µM in data set [1] (setting [6]) and 7.6 µM in data set [2] (setting [7]).
In the case of `CC(=O)Nc1ccc(C(=O)Nc2ccccc2NC(=O)CNC(=O)OCOC(=O)/C=C(C)/C=C/C=C(C)/C=C/C2=C(C)CCCC2(C)C)cc1` [VNLG/60, (N-{[N-(2-{[4-(Acetylamino)phenyl]carbonylamino}phenyl)carbamoyl]methyl}carbamoyloxy)methyl(2E,4E,6E,8E)-3,7-dimethyl-9-(2,6,6-trimethylcyclohex-1-enyl)nona-2,4,6,8-tetraenoate], the GI50 was 0.63 µM in data set [1] (setting [8]); 4.3 µM in data set [1] (Homo sapiens, MDA-MB-231, MTT assay, FIG. 1C, read-out: GI50, MDA-MB-231 (FIG. 1C)); 0.63 µM in data set [1] (setting [6]); 0.17 µM in data set [3]; 4.27 µM in data set [2] (setting [7]); 1.2 µM in data set [4]. Further, the GI50 in data set [5] (Homo sapiens, MCF7) turned out to be 0.25 µM. For the same compound, in data set [1] (MDA-MB-231), the “growth inhibitory effect versus parent drugs alone or in combination” value is “synergistic growth inhibitory effect”.
One may read the inhibition as the percentage by which the read-out fell short of the control. A higher inhibition goes with strong suppression. On to `CCCC(=O)OCc1ccc(OC(=O)/C=C(C)/C=C/C=C(C)/C=C/C2=C(C)CCCC2(C)C)cc1` [VNLG/124, 4-(Butanoyloxymethyl)phenyl(2E,4E,6E,8E)-3,7-dimethyl-9-(2,6,6-trimethylcyclohex-1-enyl)nona-2,4,6,8-tetraenoate], for which the GI50 turned out to be 0.01 µM in data set [1] (setting [8]); 0.048 µM in data set [1] (Homo sapiens, MDA-MB-231, head-to-head with 3, FIG. 7, read-out: GI50 for inhibition of growth of MDA-MB-231 cells, head-to-head (FIG. 7)); 0.01 µM in data set [1] (setting [6]); 1.7 µM in data set [2] (Homo sapiens, PC-3, FIG. 9, combination = increasing ATRA with BA 10.0 μM, read-out: GI50, PC-3 dose-response curves (FIG. 9)); 1.02 µM in data set [2] (setting [7]). Further, in data set [1] (MDA-MB-231), the “GI50 fold lower than ATRA” value is reported as 1085 fold. Further, the “GI50 fold lower than BA” value in data set [1] (MDA-MB-231) is reported as “over 100,000 fold”. Also, the “growth inhibitory effect versus parent drugs alone or in combination” value in data set [1] (MDA-MB-231) and in data set [2] (PC3) was “significant increase” in each case. In addition, the “GI50 fold lower than that of 3” value in data set [1] (MDA-MB-231, FIG. 7) was found to be 25 fold. This compound also gave an inhibition at 20 µM in data set [2] (Homo sapiens, PC-3, 20 μM, FIG. 8) of around 80%. Also, in data set [2] (PC-3, FIG. 9), the “GI50 fold lower than the combination of ATRA and BA” value is given as 15 fold.
Consider `CC1=C(/C=C/C(C)=C/C=C/C(C)=C/C(=O)Oc2ccc(CO)cc2)C(C)(C)CCC1` [compound 16, 4-(Hydroxymethyl)phenyl(2E,4E,6E,8E)-3,7-dimethyl-9-(2,6,6-trimethylcyclohex-1-enyl)nona-2,4,6,8-tetraenoate], for which the GI50 in data set [2] (setting [7]) turned out to be 1.02 µM. Further, in data set [2] (PC-3), the “GI50 fold lower than that of butyric acid (BA)” value is recorded as 74 fold.
In the case of `CC(=O)Nc1ccc(C(=O)Nc2ccccc2NC(=O)OCc2ccc(OC(=O)/C=C(C)/C=C/C=C(C)/C=C/C3=C(C)CCCC3(C)C)cc2)cc1` [VNLG/122, 4-{[N-2-{[4-(Acetylamino)phenyl]carbonylamino}phenyl0carbamoyloxy]methyl}phenyl(2E,4E,6E,8E) -3,7-dimethyl-9-(2,6,6-trimethylcyclohex-1-enyl)nona-2,4,6,8-tetraenoate], the “GI50 fold difference to VNLG/60” value in data set [1] (MDA-MB-231) was found to be 31.5 fold. Also, the “GI50 fold lower than ATRA” value in data set [1] (MDA-MB-231) stood at 543 fold. Besides, in data set [1] (MDA-MB-231), the “GI50 fold lower than CI-994” value was determined as 8.5 fold. Moreover, the 50% growth inhibitory concentration (GI50) in data set [1] (MDA-MB-231, dose-response curves, at least three independent experiments, SEM < 10%, read-out: GI50 Values, MDA-MB-231 breast cancer cells) was 0.02 µM; in data set [1] (MDA-MB-231, read-out: GI50, MDA-MB-231 cells) it was 0.02 µM; in data set [3] (MCF-7TAMR), 0.08 µM; in data set [2] (PC-3, dose-response curves, at least three independent experiments, SEM < 10%, read-out: GI50 Values, PC-3 prostate cancer cells) it was 0.87 µM; in data set [4] (MCF-7HOX-B7), 8.13 µM; in data set [5] (MCF-7), 0.52 µM.
On to `CCCC(=O)[O-].[Na+]` [Sodium butyrate (BA), Sodium butyrate, reference compound], for which the GI50 in data set [1] (setting [6]) was above 1000 µM; in data set [2] (Homo sapiens, PC-3, read-out: GI50 Values, PC-3 prostate cancer cells), 72.4 µM.
What is called melting point is the temperature, or range, at which the solid turns liquid. In turn, `CC1=C(/C=C/C(C)=C/C=C/C(C)=C/C(=O)Oc2ccc(COC(=O)Nc3ccccc3NC(=O)c3ccc(NCC(=O)OCc4cccnc4)cc3)cc2)C(C)(C)CCC1` [VNLG/114, 4-{[N-(2-{[4-({[(3-Pyridylmethyl)oxycarbonyl]methyl}amino)phenyl]carbonylamino}phenyl)carbamoyloxy]methyl}phenyl(2E,4E,6E,8E)-3,7-dimethyl-9-(2,6,6-trimethylcyclohex-1-enyl)nona-2,4,6,8-tetraenoate] yielded a melting point of 128 to 130 °C. For the same compound, the GI50 in data set [1] (setting [6]) turned out to be 0.17 µM. Besides, the “growth inhibitory effect versus parent drugs alone or in combination” value in data set [1] (MDA-MB-231) was “synergistic growth inhibitory effect; also recorded: significant increase”. It took 0.21 µM to inhibit growth in data set [3] by half (GI50). Further, the 50% growth inhibitory concentration (GI50) in data set [2] (setting [7]) amounted to 0.18 µM. In data set [4], growth was halved (GI50) at 0.72 µM. The compound further gave a GI50 in data set [5] (Homo sapiens, MCF7) of 0.06 µM.
`CC(=O)Nc1ccc(C(=O)Nc2ccccc2N)cc1` [CI-994, N-(2′-aminophenyl)-4-acetylaminobenzamide, reference compound]: the GI50 in data set [1] (setting [6]) stood at 0.17 µM; in data set [2] (setting [7]), 0.29 µM.

These data come from patent US20100184812A1, “MUTUAL PRODRUGS AND METHODS TO TREAT CANCER” (UNIVERSITY OF MARYLAND, BALTIMORE, priority 2007, published 2010).
